Measured values from patent US12049439B2 (OrsoBio, Inc., priority 2018, dated 2024).

Test system: PC-3 cells
Test: PC-3 Oxygen Rate Consumption (OCR) Assay
Assay type: cell-based
Details: Homo sapiens, 0.05 h, medium with 2% FBS, OCR at 3-min post-injection normalized to % increase over DMSO-treated cells, concentration for half-maximal OCR increase, read-out: EC50-PC3-OCR-FBS-3min
Procedure, shortened: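 Oxygen consumption read on Seahorse XFe96: three basal measurements, then compound injection and 10 cycles over 30 min. EC50 defined as concentration giving half-maximal OCR rise, using 3-min post-injection values as % above DMSO controls, six replicates per treatment, in PC-3 cells in glucose/pyruvate medium.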

Compound	EC50 [µM]
CC(C)(C)P(=O)(c1ccc(S(=O)(=O)Nc2cc(C(F)(F)F)ccc2C(=O)NC23CCC(C#N)(CC2)CC3)cc1)C(C)(C)C [Example 186, N-(4-cyanobicyclo[2.2.2]octan-1-yl)-2-((4-(di-tert-butylphosphoryl)phenyl)sulfonamido)-4-(trifluoromethyl)benzamide]	12.6
CS(=O)(=O)Nc1ccc(C(F)(F)F)cc1C(=O)NC12C3C4C1C1C2C3C41C#N [Example 187, N-((2r,3R,4r,5S)-4-cyanocuban-1-yl)-2-(methylsulfonamido)-5-(trifluoromethyl)benzamide]	11.5
CN(C)S(=O)(=O)Nc1cc(F)ccc1C(=O)NC12CC(C(F)(F)F)(C1)C2 [Example 188, 2-((N,N-dimethylsulfamoyl)amino)-4-fluoro-N-(3-(trifluoromethyl)bicyclo[1.1.1]pentan-1-yl)benzamide]	3.29
CN(C)S(=O)(=O)Nc1ccc(C(F)(F)F)cc1C(=O)NC12CC(C(F)(F)F)(C1)C2 [Example 189, 2-((N,N-dimethylsulfamoyl)amino)-5-(trifluoromethyl)-N-(3-(trifluoromethyl)bicyclo[1.1.1]pentan-1-yl)benzamide]	0.511
CN(C)S(=O)(=O)Nc1ccc(C(F)(F)F)cc1C(=O)NC12CCC(C#N)(CC1)CC2 [Example 190, N-(4-cyanobicyclo[2.2.2]octan-1-yl)-2-((N,N-dimethylsulfamoyl)amino)-5-(trifluoromethyl)benzamide]	4.15
CC(C)(C)S(=O)(=O)Nc1ccc(C(F)(F)F)cc1C(=O)NC12CCC(C#N)(CC1)CC2 [Example 191, N-(4-cyanobicyclo[2.2.2]octan-1-yl)-2-((1,1-dimethylethyl)sulfonamido)-5-(trifluoromethyl)benzamide]	1.76
CC(C)(C)[S+]([O-])Nc1ccc(C(F)(F)F)cc1C(=O)NC12CC(C(F)(F)F)(C1)C2 (centres unmarked) [Example 192, 2-((tert-butylsulfinyl)amino)-5-(trifluoromethyl)-N-(3-(trifluoromethyl)bicyclo[1.1.1]pentan-1-yl)benzamide]	14.7
O=C(NC12CC(C(F)(F)F)(C1)C2)c1cc(C(F)(F)F)ccc1NS(=O)(=O)N1CCS(=O)(=O)CC1 [Example 193, 2-((1,1-dioxidothiomorpholine)-4-sulfonamido)-5-(trifluoromethyl)-N-(3-(trifluoromethyl)bicyclo[1.1.1]pentan-1-yl)benzamide]	9.95
CS(=O)(=O)Nc1cc(Br)ccc1C(=O)NC12CCC(C#N)(CC1)CC2 [Example 194, 4-bromo-N-(4-cyanobicyclo[2.2.2]octan-1-yl)-2-(methylsulfonamido)benzamide]	≥ 50
CS(=O)(=O)Nc1ccc(C(F)(F)F)cc1C(=O)NC1CC2(CC(=O)C2)C1 [Example 195, 2-(methylsulfonamido)-N-(6-oxospiro[3.3]heptan-2-yl)-5-(trifluoromethyl)benzamide]	67.5
N#CC12CCC(NC(=O)c3cc(C(F)(F)F)ccc3NS(=O)(=O)Cc3ccccc3)(CC1)CC2 [Example 196, N-(4-cyanobicyclo[2.2.2]octan-1-yl)-2-((phenylmethyl)sulfonamido)-5-(trifluoromethyl)benzamide]	1.38
O=C(NC12CCC(F)(CC1)CC2)c1cc(C(F)(F)F)ccc1NS(=O)(=O)Cc1ccccc1 [Example 197, N-(4-fluorobicyclo[2.2.2]octan-1-yl)-2-((phenylmethyl)sulfonamido)-5-(trifluoromethyl)benzamide]	0.893
CS(=O)(=O)Nc1cc(F)ccc1C(=O)NC12CCC(C#N)(CC1)CC2 [Example 198, N-(4-cyanobicyclo[2.2.2]octan-1-yl)-4-fluoro-2-(methylsulfonamido)benzamide]	≥ 200
CS(=O)(=O)Nc1cc(F)ccc1C(=O)NC12CCC(F)(CC1)CC2 [Example 199, 4-fluoro-N-(4-fluorobicyclo[2.2.2]octan-1-yl)-2-(methylsulfonamido)benzamide]	≥ 100
Cc1ncsc1CCS(=O)(=O)Nc1ccc(C(F)(F)F)cc1C(=O)NC12CCC(C#N)(CC1)CC2 [Example 200, N-(4-cyanobicyclo[2.2.2]octan-1-yl)-2-((2-(4-methylthiazol-5-yl)ethyl)sulfonamido)-5-(trifluoromethyl)benzamide]	5.09
Cc1ncsc1CCS(=O)(=O)Nc1ccc(C(F)(F)F)cc1C(=O)NC12CCC(F)(CC1)CC2 [Example 201, N-(4-fluorobicyclo[2.2.2]octan-1-yl)-2-((2-(4-methylthiazol-5-yl)ethyl)sulfonamido)-5-(trifluoromethyl)benzamide]	1.29
CS(=O)(=O)Nc1cc(SC(F)(F)F)ccc1C(=O)NC12CCC(C#N)(CC1)CC2 [Example 202, N-(4-cyanobicyclo[2.2.2]octan-1-yl)-2-(methylsulfonamido)-4-((trifluoromethyl)thio)benzamide]	9.32
CS(=O)(=O)Nc1cc(OC(F)(F)F)ccc1C(=O)NC12CCC(C#N)(CC1)CC2 [Example 203, N-(4-cyanobicyclo[2.2.2]octan-1-yl)-2-(methylsulfonamido)-4-(trifluoromethoxy)benzamide]	23

Compound	EC50 [µM]
N#CC12CCC(NC(=O)c3cc(C(F)(F)F)ccc3NS(=O)(=O)C3CCOCC3)(CC1)CC2 [Example 204, N-(4-cyanobicyclo[2.2.2]octan-1-yl)-2-((tetrahydro-2H-pyran)-4-sulfonamido)-5-(trifluoromethyl)benzamide]	15.7
CN(C)S(=O)(=O)Nc1ccc(S(F)(F)(F)(F)F)cc1C(=O)NC12CCC(C#N)(CC1)CC2 [Example 205, N-(4-cyanobicyclo[2.2.2]octan-1-yl)-2-((N,N-dimethylsulfamoyl)amino)-5-(pentafluoro-λ^6-sulfanyl)benzamide]	1.21
N#CC12CCC(NC(=O)c3cc(S(F)(F)(F)(F)F)ccc3NS(=O)(=O)N3CCOCC3)(CC1)CC2 [Example 206, N-(4-cyanobicyclo[2.2.2]octan-1-yl)-2-(morpholine-4-sulfonamido)-5-(pentafluoro-λ^6-sulfanyl)benzamide]	2.71
O=C(NC12CCC(C(F)(F)F)(CC1)CC2)c1cc(Cl)ccc1NS(=O)(=O)C1CCS(=O)(=O)CC1 [Example 207, 5-chloro-2-((1,1-dioxidotetrahydro-2H-thiopyran)-4-sulfonamido)-N-(4-(trifluoromethyl)bicyclo[2.2.2]octan-1-yl)benzamide]	8.12
CS(=O)(=O)Nc1ccc(Cl)cc1C(=O)NC12CCC(C(F)(F)F)(CC1)CC2 [Example 208, 5-chloro-2-(methylsulfonamido)-N-(4-(trifluoromethyl)bicyclo[2.2.2]octan-1-yl)benzamide]	10.6
N#CC1(S(=O)(=O)Nc2ccc(Cl)cc2C(=O)NC23CCC(C(F)(F)F)(CC2)CC3)CC1 [Example 209, 5-chloro-2-((1-cyanocyclopropane)-1-sulfonamido)-N-(4-(trifluoromethyl)bicyclo[2.2.2]octan-1-yl)benzamide]	0.648
O=C(NC12CCC(C(F)(F)F)(CC1)CC2)c1cc(OC(F)(F)F)ccc1NS(=O)(=O)C1CCS(=O)(=O)CC1 [Example 210, 2-((1,1-dioxidotetrahydro-2H-thiopyran)-4-sulfonamido)-5-(trifluoromethoxy)-N-(4-(trifluoromethyl)bicyclo[2.2.2]octan-1-yl)benzamide]	4.35
N#CC12CCC(NC(=O)c3cc(Cl)ccc3NS(=O)(=O)C3(C#N)CC3)(CC1)CC2 [Example 211, 5-chloro-N-(4-cyanobicyclo[2.2.2]octan-1-yl)-2-((1-cyanocyclopropane)-1-sulfonamido)benzamide]	15.4
CS(=O)(=O)Nc1ccc(C(F)(F)F)cc1C(=O)NC12CC(C1)C2 [Example 212, N-(bicyclo[1.1.1]pentan-1-yl)-2-(methylsulfonamido)-5-(trifluoromethyl)benzamide]	8.62
CS(=O)(=O)Nc1ccc(Cl)cc1C(=O)NC12CCC(C#N)(CC1)CC2 [Example 213, 5-chloro-N-(4-cyanobicyclo[2.2.2]octan-1-yl)-2-(methylsulfonamido)benzamide]	81.9
CS(=O)(=O)Nc1cc(Cl)ccc1C(=O)NC12CCC(C#N)(CC1)CC2 [Example 214, 4-chloro-N-(4-cyanobicyclo[2.2.2]octan-1-yl)-2-(methylsulfonamido)benzamide]	26.3
CS(=O)(=O)Nc1cc(F)c(F)cc1C(=O)NC12CCC(C#N)(CC1)CC2 [Example 215, N-(4-cyanobicyclo[2.2.2]octan-1-yl)-4,5-difluoro-2-(methylsulfonamido)benzamide]	21.4
CCS(=O)(=O)Nc1cc(F)c(F)cc1C(=O)NC12CCC(C#N)(CC1)CC2 [Example 216, N-(4-cyanobicyclo[2.2.2]octan-1-yl)-4,5-difluoro-2-(ethylsulfonamido)benzamide]	16.9
CS(=O)(=O)N1C2CCC1CC(NC(=O)c1ccc(F)cc1NS(=O)(=O)CCC(F)(F)F)C2 (centres unmarked) [Example 217, 4-fluoro-N-(8-(methylsulfonyl)-8-azabicyclo[3.2.1]octan-3-yl)-2-((3,3,3-trifluoropropyl)sulfonamido)benzamide]	112
CS(=O)(=O)N1C2CCC1CC(NC(=O)c1ccc(Cl)cc1NS(=O)(=O)CCC(F)(F)F)C2 (centres unmarked) [Example 218, 4-chloro-N-(8-(methylsulfonyl)-8-azabicyclo[3.2.1]octan-3-yl)-2-((3,3,3-trifluoropropyl)sulfonamido)benzamide]	53.4
CS(=O)(=O)Nc1c(C(=O)NC23CCC(C#N)(CC2)CC3)ccc2ccccc12 [Example 219, N-(4-cyanobicyclo[2.2.2]octan-1-yl)-1-(methylsulfonamido)-2-naphthamide]	≥ 200
N#CC12CCC(NC(=O)c3cc(F)ccc3NS(=O)(=O)CCC(F)(F)F)(CC1)CC2 [Example 220, N-(4-cyanobicyclo[2.2.2]octan-1-yl)-5-fluoro-2-((3,3,3-trifluoropropyl)sulfonamido)benzamide]	5.09
